Data on 30 compounds can be found in patent US9102591B2, “Benzamides” (H. Lundbeck A/S, priority 2012, dated 2015).

pIC50: −log10 of the molar value.

For the experiment, the target named is P2X7 receptor (Homo sapiens (Human), UniProt Q99572). Kind of experiment: P2X7 FLIPR assay (BzATP-stimulated calcium fluorescence, antagonist IC50). The class given is cell-based. The method, then: This example illustrates representative assays for use in evaluating the test compounds for antagonist activity. Compounds of the present invention were tested in vitro for their ability to act as antagonists to the P2X7receptor. […]
Sequence of P2X7 receptor (Q99572 whole entry): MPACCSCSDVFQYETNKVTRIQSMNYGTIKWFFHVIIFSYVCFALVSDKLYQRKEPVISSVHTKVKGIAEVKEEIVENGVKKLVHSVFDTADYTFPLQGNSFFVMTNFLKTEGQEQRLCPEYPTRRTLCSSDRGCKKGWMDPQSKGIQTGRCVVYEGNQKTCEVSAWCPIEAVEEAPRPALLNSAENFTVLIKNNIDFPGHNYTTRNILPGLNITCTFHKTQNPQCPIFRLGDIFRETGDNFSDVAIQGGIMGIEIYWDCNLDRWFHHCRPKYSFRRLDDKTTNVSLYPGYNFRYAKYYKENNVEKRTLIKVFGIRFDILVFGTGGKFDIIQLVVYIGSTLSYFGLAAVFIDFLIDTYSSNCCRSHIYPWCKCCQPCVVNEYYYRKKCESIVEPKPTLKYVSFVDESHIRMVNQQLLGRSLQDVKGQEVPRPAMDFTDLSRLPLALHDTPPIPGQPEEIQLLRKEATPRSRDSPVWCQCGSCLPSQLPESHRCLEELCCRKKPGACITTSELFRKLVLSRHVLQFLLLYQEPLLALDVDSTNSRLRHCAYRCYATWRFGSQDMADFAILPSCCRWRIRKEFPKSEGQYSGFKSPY
Cells were plated to cell density of approximately 15,000 cells/well in 384-well assay plates (50 μl/well) with 1.5% low serum media (DMEM, 1.5% FBS, 1% L-glut (2 mM), 10 mM HUES, 1% P/S). Cells were plated 24 hours prior to assay. Cells expressing human, rat or mouse P2X7 receptor were assayed in the following manner.
Fluo-4 NW dye mix (Molecular Probes, Inc., Eugene, Oreg., USA) was prepared in buffer (see manufacturer's instructions). Cell plates were removed from the 37° C. incubator, the media discarded and then 30 μL of dye was added to each well. Plates were placed in the 37° C., non-CO2 incubator for 30 minutes and then room temperature for 30 minutes.
Compound mixtures (A) were added to assay plates containing cells and placed at room temperature for 30 minutes, then BzATP (B) was added. Fluorescence was read using the Tetra FLIPR® (Molecular Devices, Inc., Sunnyvale, Calif., USA) and IC50 values were calculated by standard methods to determine antagonist activity.
For orientation: pIC50 means −log10 of the IC50, conventionally taken in molar units. As to `O=C(NCC(c1ccccc1)c1ccc(Cl)cc1)c1cccc(Cl)c1Cl` (stereo not drawn) [2,3-dichloro-N-(2-(4-chlorophenyl)-2-phenylethyl)benzamide], the pIC50 was 6.92. On to `O=C(NCC1(c2ccc(Cl)cc2)CCOCC1)c1cccc(Cl)c1Cl` [2,3-dichloro-N-((4-(4-chlorophenyl)tetrahydro-2H-pyran-4-yl)methyl)benzamide], for which the pIC50 is 7.37.

Consider `O=C(NCC(c1cnc(C(F)(F)F)nc1)C1CCC(F)(F)CC1)c1c(F)cccc1Cl` (single isomer, unassigned; (+)) [(+)2-chloro-N-[2-(4,4-difluorocyclohexyl)-2-[2-(trfluorometh] [(+)2-chloro-N-[2-(4,4-difluorocyclohexyl)-2-[2-(trfluoromethyl)pyrimidin-5-yl]ethyl]-6-fluoro-benzamide], for which the pIC50 was 7.12. With `O=C(NCC(c1cnc(C(F)(F)F)nc1)C1CCC(F)(F)CC1)c1ccccc1Cl` (single isomer, unassigned; (-)) [(−)2-chloro-N-[2-(4,4-difluorocyclohexyl)-2-[2-(trifluoromet] [(−)2-chloro-N-[2-(4,4-difluorocyclohexyl)-2-[2-(trifluoromethyl)pyrimidin-5-yl]ethyl]benzamide] the figure was 8.19; with `Cc1ccc(Cl)c(C(=O)NCC2(c3cccnc3)CCCC2)c1` [2-Chloro-5-methyl-N-(1-pyridin-3-yl-cyclopentylmethyl)-benzamide], 5.54. With `O=C(NCC(c1ccc(F)cc1)c1cnc(C(F)(F)F)nc1)c1ccccc1Cl` (single isomer, unassigned; (+)) [(+)2-chloro-N-[2-(4-fluorophenyl)-2-[2-(trifluoromethyl)pyri] [(+)2-chloro-N-[2-(4-fluorophenyl)-2-[2-(trifluoromethyl)pyrimidin-5-yl]ethyl]benzamide] the figure was 8.36; with `Cc1cccc(C(=O)NCC2(c3ccc(C(F)(F)F)nc3)CCC(F)(F)CC2)c1Cl` [2-chloro-N-((4,4-difluoro-1-(6-(trifluoromethyl)pyridin-3-yl)cyclohexyl)methyl)-3-methylbenzamide], 9.27. As to `COc1cccc(C(=O)NCC(CC2CC2)c2cnc(C(F)(F)F)nc2)c1Cl` (single isomer, unassigned; (-)) [(−)2-chloro-N-[3-cyclopropyl-2-[2-(trifluoromethyl)pyrimidin] [(−)2-chloro-N-[3-cyclopropyl-2-[2-(trifluoromethyl)pyrimidin-5-yl]propyl]-3-methoxy-benzamide], the pIC50 was 8.47. With `O=C(NCC(CC1CC1)c1cnc(C(F)(F)F)nc1)c1ccccc1Cl` (single isomer, unassigned; (-)) [(−)2-chloro-N-[3-cyclopropyl-2-[2-(trifluoromethyl)pyrimidin] [(−)2-chloro-N-[3-cyclopropyl-2-[2-(trifluoromethyl)pyrimidin-5-yl]propyl]benzamide] the figure was 8.49. `O=C(NCC(CC1CC1)c1ccc(C(F)(F)F)nc1)c1c(Cl)cccc1Cl` (single isomer, unassigned; (-)) [(−)2,6-dichloro-N-[3-cyclopropyl-2-[6-(trifluoromethyl)-3-py] [(−)2,6-dichloro-N-[3-cyclopropyl-2-[6-(trifluoromethyl)-3-pyridyl]propyl]benzamide]: the pIC50 is 8.92.

Take `O=C(NCC1(c2ccc(Cl)cc2)CCOCC1)c1c(Cl)cccc1Cl` [2,6-Dichloro-N-[4-(4-chloro-phenyl)-tetrahydro-pyran-4-ylmethyl]-benzamide]: the pIC50 is 6.44. `O=C(NCC(c1ccccc1)c1ccc(C(F)(F)F)nc1)c1c(Cl)cccc1Cl` (single isomer, unassigned; (+)) [(+)2,6-dichloro-N-[2-phenyl-2-[6-(trifluoromethyl)-3-pyridyl] [(+)2,6-dichloro-N-[2-phenyl-2-[6-(trifluoromethyl)-3-pyridyl]ethyl]benzamide]: the pIC50 was 7.92. With `O=C(NCC(CC1CC1)c1ccc(C(F)(F)F)nc1)c1ccccc1Cl` (single isomer, unassigned; (-)) [Example 4b, (−)-2-Chloro-N-[3-cyclopropyl-2-[6-(trifluoromethyl)-3-pyridyl]propyl]benzamide] the figure was 8.64. Then `O=C(NCC(c1ccc(F)cc1)c1ccc(C(F)(F)F)nc1)c1ccccc1Cl` (single isomer, unassigned; (+)) [(+)2-chloro-N-[2-(4-fluorophenyl)-2-[6-(trifluoromethyl)-3-p] [(+)2-chloro-N-[2-(4-fluorophenyl)-2-[6-(trifluoromethyl)-3-pyridyl]ethyl]benzamide], with 8.66; and `Cc1ncc(C(CNC(=O)c2cccc(F)c2Cl)c2ccncc2)cn1` (stereo not drawn) [2-chloro-3-fluoro-N-[2-(2-methylpyrimidin-5-yl)-2-(4-pyridyl)ethyl]benzamide], with 6.07. As for `O=C(NCC(CC1CC1)c1ccc(C(F)(F)F)nc1)c1ccc(F)cc1Cl` (stereo not drawn) [2-chloro-N-(3-cyclopropyl-2-(6-(trifluoromethyl)pyridin-3-yl)propyl)-4-fluorobenzamide], the pIC50 is 6.51. With `O=C(NCC1(c2ccc(Cl)cc2)CCOCC1)c1ccccc1Cl` [2-Chloro-N-[4-(4-chloro-phenyl)-tetrahydro-pyran-4-ylmethyl]-benzamide] the figure was 6.10; with `O=C(NCC(CC1CC1)c1ccc(C(F)F)nc1)c1cccc(F)c1Cl` (single isomer, unassigned; (-)) [(−)2-chloro-N-[3-cyclopropyl-2-[6-(difluoromethyl)-3-pyridyl] [(−)2-chloro-N-[3-cyclopropyl-2-[6-(difluoromethyl)-3-pyridyl]propyl]-3-fluoro-benzamide], 7.72. Then `COc1ccc(F)c(C(=O)NCC2(c3ccc(F)nc3)CCC(F)(F)CC2)c1` [N-((4,4-difluoro-1-(6-fluoropyridin-3-yl)cyclohexyl)methyl)-2-fluoro-5-methoxybenzamide], with 7.19; and `O=C(NCC(CC1(F)CC1)c1cnc(C(F)(F)F)nc1)c1cccc(Cl)c1Cl` (stereo not drawn) [2,3-dichloro-N-[3-(1-fluorocyclopropyl)-2-[2-(trifluoromethyl)pyrimidin-5-yl]propyl]benzamide], with 8.03.

`O=C(NCC(CC1CC1)c1ccc(C(F)(F)F)nc1)c1c(F)cccc1F` (single isomer, unassigned; (+)) [(+)N-[3-cyclopropyl-2-[6-(trifluoromethyl)-3-pyridyl]propyl]] [(+)N-[3-cyclopropyl-2-[6-(trifluoromethyl)-3-pyridyl]propyl]-2,6-difluoro-benzamide]: the pIC50 was 6.13. Then `O=C(NCC1(c2ccc(Cl)cc2)CCOCC1)c1cc(F)cc(F)c1F` [N-[4-(4-Chloro-phenyl)-tetrahydro-pyran-4-ylmethyl]-2,3,5-trifluoro-benzamide], with 5.44; and `O=C(NCC(c1cnc(C(F)(F)F)nc1)C1CCC(F)(F)CC1)c1cccc(F)c1Cl` (single isomer, unassigned; (+)) [(+)2-chloro-N-[2-(4,4-difluorocyclohexyl)-2-[2-(trifluoromet] [(+)2-chloro-N-[2-(4,4-difluorocyclohexyl)-2-[2-(trifluoromethyl)pyrimidin-5-yl]ethyl]-3-fluoro-benzamide], with 7.35. With `O=C(NCC(c1ccc(F)cc1)c1cnc(C(F)(F)F)nc1)c1ccccc1Cl` (single isomer, unassigned; (-)) [(−)2-chloro-N-[2-(4-fluorophenyl)-2-[2-(trifluoromethyl)pyri] [(−)2-chloro-N-[2-(4-fluorophenyl)-2-[2-(trifluoromethyl)pyrimidin-5-yl]ethyl]benzamide] the figure was 8.70.

Take `O=C(NCC1(c2ccc(C(F)(F)F)nc2)CCC(F)(F)CC1)c1cccc(F)c1Cl` [2-chloro-N-((4,4-difluoro-1-(6-(trifluoromethyl)pyridin-3-yl)cyclohexyl)methyl)-3-fluorobenzamide]: the negative-log IC50 (pIC50) is 8.85. Then `Cc1ncc(C(CNC(=O)c2ccccc2Cl)C2CCOCC2)cn1` (single isomer, unassigned; (+)) [(+)2-chloro-N-[2-(2-methylpyrimidin-5-yl)-2-tetrahydropyran-] [(+)2-chloro-N-[2-(2-methylpyrimidin-5-yl)-2-tetrahydropyran-4-yl-ethyl]benzamide], with 6.01. Then `O=C(NCC1(c2ccc(F)nc2)CCC(F)(F)CC1)c1cc(Cl)ccc1Cl` [2,5-dichloro-N-((4,4-difluoro-1-(6-fluoropyridin-3-yl)cyclohexyl)methyl)benzamide], with 8.64; and `O=C(NCC1(c2ccc(C(F)(F)F)nc2)CCC(F)(F)CC1)c1cccc(Cl)c1Cl` [2,3-dichloro-N-((4,4-difluoro-1-(6-(trifluoromethyl)pyridin-3-yl)cyclohexyl)methyl)benzamide], with 8.92.

Take `O=C(NCC1(c2cnc(C(F)(F)F)nc2)CCOCC1)c1cccc(Cl)c1Cl` [2,3-dichloro-N-[[4-[2-(trifluoromethyl)pyrimidin-5-yl]tetrahydropyran-4-yl]methyl]benzamide]: the negative-log IC50 (pIC50) is 6.60. As for `O=C(NCC(CC1CC1)c1ccc(C(F)(F)F)nc1)c1c(F)cccc1Cl` (single isomer, unassigned; (-)) [(−)2-chloro-N-[3-cyclopropyl-2-[6-(trifluoromethyl)-3-pyridy] [(−)2-chloro-N-[3-cyclopropyl-2-[6-(trifluoromethyl)-3-pyridyl]propyl]-6-fluoro-benzamide], the pIC50 is 8.68.
